Reference: US20100135905A1, “ASSESSMENT OF CANCER SUSCEPTIBILITY TO MOLECULAR TARGETED THERAPY BY USE OF RECOMBINANT PEPTIDES” (priority 2004, published 2010)

How the values were obtained:
D54 and LLC tumors = experiment: Imaging of Alexfluor 750-conjugated peptide in responding and non-responding tumors; assay type: in vivo, nude mice
Protocol: D54 and LLC tumors were implanted into both hind limbs of nude mice as described in Example 2. Tumors were grown over the course of seven to 10 days.
At 24 hours following drug administration, mice were injected with Alexfluor 750-conjugated HVGGSSV (SEQ ID NO: 1) peptide through a jugular catheter.

treated tumors = experiment: Kinetics of Cy 7 conjugated peptide binding to treated tumors, daily imaging; assay type: in vivo, mouse; details: Cy 7 conjugate
Protocol: To study the kinetics of peptide binding to treated tumors, animals were imaged daily following administration of Cy 7 conjugated HVGGSSV (SEQ ID NO: 1) peptide. […] At 40 hours, the peptide was excreted by the kidneys. Tumors were located in the left hind limb.

[1] = tested on: B16F0 melanoma, lung carcinoma and glioma tumor models; experiment: Binding of phage-encoded peptides in additional tumor models; assay type: in vivo; details: phage encoding the peptide
Text: The binding properties of phage encoding HVGGSSV (SEQ ID NO: 1), […] (SEQ ID NO: 2), […] (SEQ ID NO: 3), and SVGSRV (SEQ ID NO: 4) were additionally characterized in a B16F0 melanoma model.

LLC tumors [2] = experiment: In vivo panning of T7 phage peptide library: phage recovered from irradiated LLC tumors; design: species or system mice
Protocol: (§1) GL261 murine glioma cells and Lewis lung carcinoma (LLC) cells were implanted into the hind limb of C57BL/6 mice (see Hallahan et al., 1995b; Hallahan et al., 1998; Hallahan & Virudachalam, 1999).
(§2) For in vivo panning, tumors were irradiated with 3 Gy and approximately 10^10 phage (prepared as described in Example 1) were administered by tail vein injection into each of the tumor bearing mice at 4 hours following irradiation. Tumors were recovered at one hour following injection and amplified in BL21 bacteria. Amplified phage were pooled and re-administered to a tumor-bearing mouse following tumor irradiation. The phage pool was sequentially administered to a total of 6 animals. As a control, wild type phage lacking synthetic peptide inserts were identically administered to a second experimental group of animals.
(§3) To determine the titer of phage binding in a tumor or in normal tissue, recovered phage were amplified in BL21 bacteria. Bacteria were plated and the number of plaques present was counted. To determine the total phage output per organ, the number of plaque forming units (PFU) on each plate was divided by the volume of phage plated and the weight of each organ. Normal variation was observed as a 2-fold difference in PFU. In the present Example, background binding within tumor blood vessels was approximately 10^4 phage. Phage that bound to the vasculature within irradiated tumors show enrichment in the tumor relative to other organs and enrichment in the irradiated tumor relative to the control phage without DNA insert.
(§4) Following six rounds of in vivo panning, fifty recombinant phage peptides that bound within irradiated tumors were randomly selected for further analysis. The nucleic acid sequence encoding recombinant phage was amplified by PCR using primers set forth as SEQ ID NOs: 20-21 (available from Novagen Brand, a unit of EMD Biosciences, Inc., Madison, Wis.). An individual phage suspension was used as template. Amplified peptides were sequenced using an ABI PRISM® 377 sequencer (Applied Biosystems of Foster City, Calif., United States of America).

[3] = tested on: tumor vascular endothelium; experiment: Histochemistry of tumor sections after biotinylated peptide; assay type: in vivo; details: 24 hours after administration
Protocol: To determine whether peptide binds to endothelium or blood components, tumors were sectioned at 24 hours following administration of biotinylated HVGGSSV (SEQ ID NO: 1) peptide. Tumor sections were then stained with strepavidin conjugates for histochemistry.

GL261 tumors = experiment: In vivo panning of T7 phage peptide library: phage recovered from irradiated GL261 tumors; design: species or system mice; details: Experiment A, 3 Gy; for Phage Recovered from GL261 tumors: number of sequenced phage after six rounds; for Phage Recovered from GL261 tumors (Frequency): six rounds
Protocol: as §1, §2, §3, §4

responding tumor = experiment: Near infrared imaging of Cy7-labeled phage peptide in tumor-bearing mice; assay type: in vivo, mouse
Protocol: To determine the feasibility of imaging phage peptides binding within tumors, a Xenogen imaging system (Xenogen Corp., Alameda, Calif., United States of America) and near infrared imaging of Cy7-labeled recombinant peptides selected from phage libraries was employed. In order to examine the binding of recombinant phage peptides to responding tumors, preliminary experiments were performed to test the background binding of negative control phage in tumor-bearing animals. The […] was labeled with Cy7 and injected by tail vein into a mouse bearing tumors in both hind limbs. […] The time course of labeled negative control phage circulating throughout the animal over 6 hours was determined. At 1 hour post-injection via the tail vein, Cy7-labeled phage was distributed throughout the entire animal. At 6 hours after tail vein injection, clearance through the kidneys was observed.

α2bβ3 receptor = target: T1, α2bβ3 receptor (Mus musculus, UniProt O54890+Q9QUM0); experiment: Phage binding in irradiated tumors with blocking antibody, plaque formation; assay type: in vivo; details: phage encoding the peptide on the capsid protein
T1 construct: from tissue; host or cells: irradiated tumours (tumour vasculature / blood components) in living mice
T1 sequence (Q9QUM0 32-1033): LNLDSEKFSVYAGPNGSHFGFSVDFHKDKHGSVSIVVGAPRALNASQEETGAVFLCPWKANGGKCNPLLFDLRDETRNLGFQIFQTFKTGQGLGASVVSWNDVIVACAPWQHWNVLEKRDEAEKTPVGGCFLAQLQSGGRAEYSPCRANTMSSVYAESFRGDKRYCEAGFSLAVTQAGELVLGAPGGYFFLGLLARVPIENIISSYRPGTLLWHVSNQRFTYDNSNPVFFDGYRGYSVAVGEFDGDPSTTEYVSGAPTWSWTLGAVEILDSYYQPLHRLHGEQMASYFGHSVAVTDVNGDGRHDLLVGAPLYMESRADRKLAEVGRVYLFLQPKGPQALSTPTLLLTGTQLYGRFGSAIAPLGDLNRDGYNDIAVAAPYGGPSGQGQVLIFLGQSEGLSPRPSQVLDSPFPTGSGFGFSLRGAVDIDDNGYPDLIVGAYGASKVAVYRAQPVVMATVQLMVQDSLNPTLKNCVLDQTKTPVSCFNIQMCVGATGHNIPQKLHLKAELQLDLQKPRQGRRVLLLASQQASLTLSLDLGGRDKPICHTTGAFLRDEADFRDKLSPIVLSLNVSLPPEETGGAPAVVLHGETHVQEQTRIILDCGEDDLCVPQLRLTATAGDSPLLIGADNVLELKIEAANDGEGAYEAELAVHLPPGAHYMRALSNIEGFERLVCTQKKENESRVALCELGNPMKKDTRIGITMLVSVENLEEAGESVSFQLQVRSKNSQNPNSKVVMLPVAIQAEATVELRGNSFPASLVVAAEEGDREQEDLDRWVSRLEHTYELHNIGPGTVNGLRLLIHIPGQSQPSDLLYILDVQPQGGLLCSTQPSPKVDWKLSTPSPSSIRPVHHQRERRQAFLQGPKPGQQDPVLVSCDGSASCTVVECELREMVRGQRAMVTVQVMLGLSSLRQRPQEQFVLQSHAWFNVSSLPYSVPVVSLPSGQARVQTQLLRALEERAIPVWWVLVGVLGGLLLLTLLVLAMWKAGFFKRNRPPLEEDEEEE
T1 sequence (O54890 26-787): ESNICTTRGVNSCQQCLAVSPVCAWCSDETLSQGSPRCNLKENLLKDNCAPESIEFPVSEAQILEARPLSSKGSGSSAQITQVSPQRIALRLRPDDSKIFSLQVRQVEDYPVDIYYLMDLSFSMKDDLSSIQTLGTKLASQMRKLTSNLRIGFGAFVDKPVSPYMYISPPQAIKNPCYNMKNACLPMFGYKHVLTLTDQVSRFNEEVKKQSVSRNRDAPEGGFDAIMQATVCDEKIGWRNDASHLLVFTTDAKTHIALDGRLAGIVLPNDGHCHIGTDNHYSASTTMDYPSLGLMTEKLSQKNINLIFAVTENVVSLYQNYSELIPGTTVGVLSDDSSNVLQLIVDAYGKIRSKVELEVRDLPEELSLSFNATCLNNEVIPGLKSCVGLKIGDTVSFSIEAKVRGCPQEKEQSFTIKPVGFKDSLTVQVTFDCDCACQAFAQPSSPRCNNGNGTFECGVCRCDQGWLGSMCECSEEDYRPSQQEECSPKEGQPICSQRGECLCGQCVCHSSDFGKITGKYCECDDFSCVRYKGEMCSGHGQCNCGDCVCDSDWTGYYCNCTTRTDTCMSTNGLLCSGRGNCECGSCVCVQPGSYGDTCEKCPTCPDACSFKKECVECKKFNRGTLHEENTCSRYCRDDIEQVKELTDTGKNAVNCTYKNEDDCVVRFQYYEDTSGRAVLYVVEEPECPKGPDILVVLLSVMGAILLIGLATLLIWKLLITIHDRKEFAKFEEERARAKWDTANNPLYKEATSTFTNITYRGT
Protocol: An anti-α2bβ3 monoclonal antibody was administered by tail vein to determine whether this receptor is required for recombinant phage binding in irradiated tumors. Phage encoding […] (SEQ ID NO: 2) on the capsid protein were injected immediately after blocking antibody or control antibody. Phage were recovered from the tumor and controls organs and quantified by plaque formation. Radiation induced a 4-fold increase in phage binding in tumor. […] Thus, the tumor binding activity of targeting peptide […] (SEQ ID NO: 2) is dependent on its interaction with the α2bβ3 receptor.

LLC tumors [4] = experiment: 131I-labeled peptide binding in hind limb LLC tumors, well counts; assay type: in vivo, mice
Protocol: Recombinant peptide and ligand binding to the α2bβ3 integrin is dose dependent, with a threshold dose of 6 Gy and maximal binding at 10 Gy. This is the dose range for induction of apoptosis within tumor endothelium (Garcia-Barros & Kolesnick, 2003). […] To determine whether recombinant peptides bind within tumors following this combined therapy, the recombinant peptide […] (SEQ ID NO: 2) was employed. […] Tumors were resected and counts per minute (CPM) were measured by well counts.

[5] = Experiment A, number of sequenced phage after six rounds, 3 Gy

## HVGGSSV (Peptide that binds to LLC and/or GL261 tumors) [peptide isolated by in vivo panning of a phage library]
D54 and LLC tumors; Alexfluor 750 conjugate, tumor treated with SU11248 and radiation, 24 hours after drug
  Labeled peptide binding in tumor: Intense peptide binding
D54 and LLC tumors; responding versus non-responding tumors
  Uptake in tumors treated with SU11248 alone compared to untreated tumors: differentially bound to tumors that responded to SU11248 therapy
D54 and LLC tumors; tumors not responding to therapy, SU11248 alone
  Labeled peptide binding in tumor: no increase in peptide binding
Treated tumors
  Time at which peptide was excreted by the kidneys: 40 h
  Time over which peptide circulated throughout the mouse: 28 h
  Time over which peptide remained bound to the tumor: 162 h
[1]
  Tumor models within which the phage-encoded peptide bound: bound within the melanoma, lung carcinoma, and glioma tumor models
LLC tumors [2]; [5]
  Phage Recovered from LLC tumors: 7
LLC tumors [2]; Experiment A, six rounds, 3 Gy
  Phage Recovered from LLC tumors (Frequency): (28%)
[3]
  Binding within the intravascular blood components: minimal or no binding
[3]; streptavidin histochemistry
  Site of peptide binding in tumor sections: bound primarily to tumor vascular endothelium
GL261 tumors
  Phage Recovered from GL261 tumors: 12
  Phage Recovered from GL261 tumors (Frequency): (48%)
Responding tumor; SU11248 and 3 Gy to right hind limb tumor
  Binding of Cy7-labeled phage peptide in treated tumor: bound within the responding tumor
Responding tumor; mouse treated with SU11248 40 mg/kg, one hind limb tumor 3 Gy 24 hours prior to imaging
  Binding of Cy7-labeled phage peptide in tumors: observed in the responding tumor but not an non-responding tumor
Responding tumor; no SU11248 or radiation, 24 hours after tail vein injection
  Phage binding in negative control tumor: minimal phage binding

## SLRGDGSSV (Peptide that binds to LLC and/or GL261 tumors) [peptide isolated by in vivo panning]
α2bβ3 receptor
  Radiation-induced increase in phage binding in tumor: 4 fold
[1]
  Tumor models within which the phage-encoded peptide bound: bound within the melanoma, lung carcinoma, and glioma tumor models
LLC tumors [2]; [5]
  Phage Recovered from LLC tumors: 7
LLC tumors [2]; Experiment A, six rounds, 3 Gy
  Phage Recovered from LLC tumors (Frequency): (28%)
LLC tumors [2]; Experiment B
  Phage Recovered from LLC tumors (Frequency): (14%)
LLC tumors [2]; Experiment B, number of sequenced phage
  Phage Recovered from LLC tumors: 2
GL261 tumors
  Phage Recovered from GL261 tumors: 2
  Phage Recovered from GL261 tumors (Frequency): (8%)
LLC tumors [4]; tumors treated with 2 Gy alone
  Radiolabeled peptide bound in tumors: 10%
LLC tumors [4]; tumors treated with 10 Gy
  Radiolabeled peptide bound in tumors: 89%
LLC tumors [4]; tumors treated with SU11248 alone
  Radiolabeled peptide bound in tumors: 9%
LLC tumors [4]; tumors treated with SU11248 and 2 Gy
  Radiolabeled peptide bound in tumors: 91%
LLC tumors [4]; untreated control tumors (tumors about 8% of body weight)
  Radiolabeled peptide bound in tumors: 8%
